Data taken from ChEMBL document CHEMBL1201862, “PubChem BioAssay data set” (2004).
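Briefly, cells in 96-well plates were exposed to five compound concentrations for 48 h, and endpoints were estimated by linear interpolation. The concentration for 50% growth inhibition is given as GI50.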 Activity calls are given as the source filed them. No stated cut-off is given here; in the data, active = GI50 up to about 1.1 µM and inactive = higher.

Experiments:
Assay in all cases: growth of human tumour cells (NCI), 48 h
DMS-273 = test system: DMS-273
SF-539 = test system: SF-539
NCI-H522 = test system: NCI-H522
HOP-62 = test system: HOP-62
NCI-H460 = test system: NCI-H460
SK-MEL-2 = test system: SK-MEL-2
OVCAR-4 = test system: OVCAR-4
SF-268 = test system: SF-268
SF-295 = test system: SF-295
SK-MEL-5 = test system: SK-MEL-5
HCT-116 = test system: HCT-116
MOLT-4 = test system: MOLT-4
RPMI-8226 = test system: RPMI-8226
HOP-92 = test system: HOP-92
SN12C = test system: SN12C
OVCAR-5 = test system: OVCAR-5
SNB-75 = test system: SNB-75
M19-MEL = test system: M19-MEL
UO-31 = test system: UO-31
NCI/ADR-RES = test system: NCI/ADR-RES
LOX IMVI = test system: LOX IMVI
UACC-62 = test system: UACC-62
EKVX = test system: EKVX
HCC 2998 = test system: HCC 2998
XF498 = test system: XF498
SK-MEL-28 = test system: SK-MEL-28
KM-20L2 = test system: KM-20L2
SNB-78 = test system: SNB-78
MCF7 = test system: MCF7
OVCAR-3 = test system: OVCAR-3
COLO 205 = test system: COLO 205
SNB-19 = test system: SNB-19
A549 = test system: A549
KM12 = test system: KM12
SW-620 = test system: SW-620
DMS-114 = test system: DMS-114
UACC-257 = test system: UACC-257
HCT-15 = test system: HCT-15
A498 = test system: A498
IGROV-1 = test system: IGROV-1
CAKI-1 = test system: CAKI-1
CCRF-CEM = test system: CCRF-CEM
SK-OV-3 = test system: SK-OV-3
Malme-3M = test system: Malme-3M
K562 = test system: K562
DLD-1 = test system: DLD-1
HOP-18 = test system: HOP-18
HT-29 = test system: HT-29
U-251 = test system: U-251
NCI-H23 = test system: NCI-H23
OVCAR-8 = test system: OVCAR-8
HL-60 = test system: HL-60
NCI-H226 = test system: NCI-H226
RXF 393 = test system: RXF 393
786-0 = test system: 786-0
LXFL 529 = test system: LXFL 529
TK-10 = test system: TK-10
M14 = test system: M14
SR = test system: SR
ACHN = test system: ACHN

Measured: GI50

CCN(CC)CCCC(C)Nc1c2ccc(Cl)cc2nc2cc(Cl)ccc12 (stereo unspecified)
inactive: DMS-273 3.32 µM | SF-539 4.34 µM | NCI-H522 5.07 µM | HOP-62 8.18 µM | NCI-H460 3.31 µM | SK-MEL-2 15.7 µM | OVCAR-4 3.37 µM | SF-268 4.9 µM | SF-295 3.4 µM | SK-MEL-5 4.76 µM | HCT-116 2.27 µM | MOLT-4 1.98 µM | RPMI-8226 2.23 µM | HOP-92 2.77 µM | SN12C 4.66 µM | OVCAR-5 6.7 µM | SNB-75 7.03 µM | M19-MEL 4.85 µM | UO-31 3.57 µM | NCI/ADR-RES 3.44 µM | LOX IMVI 2.64 µM | UACC-62 6.89 µM | EKVX 9.73 µM | HCC 2998 2.16 µM | XF498 4.99 µM | SK-MEL-28 5.6 µM | KM-20L2 3.42 µM | SNB-78 9.82 µM | MCF7 3.13 µM | OVCAR-3 5.71 µM | COLO 205 1.94 µM | SNB-19 17 µM | A549 4.78 µM | KM12 3.56 µM | SW-620 3.24 µM | DMS-114 4.41 µM | UACC-257 4.6 µM | A498 8.67 µM | IGROV-1 4.76 µM | CAKI-1 3.22 µM | CCRF-CEM 1.76 µM | SK-OV-3 5.6 µM | Malme-3M 12.2 µM | K562 2.21 µM | DLD-1 2.94 µM | HOP-18 5.42 µM | HT-29 2.47 µM | U-251 5.09 µM | NCI-H23 6.62 µM | OVCAR-8 4.55 µM | HL-60 1.91 µM | NCI-H226 4.27 µM | RXF 393 3.23 µM
3.04 µM: HCT-15

CCOC(=O)CN(CC)C(=O)NC12CC3CC(CC(C3)C1)C2
inactive: DMS-273 233 µM | SF-539 244 µM | NCI-H522 155 µM | HOP-62 188 µM | NCI-H460 200 µM | SK-MEL-2 131 µM | OVCAR-4 175 µM | SF-268 281 µM | SF-295 230 µM | SK-MEL-5 109 µM | HCT-116 189 µM | MOLT-4 133 µM | RPMI-8226 141 µM | HOP-92 67 µM | SN12C 288 µM | OVCAR-5 225 µM | SNB-75 92.9 µM | M19-MEL 184 µM | UO-31 139 µM | NCI/ADR-RES 196 µM | LOX IMVI 151 µM | UACC-62 116 µM | EKVX 207 µM | HCC 2998 222 µM | XF498 125 µM | SK-MEL-28 269 µM | KM-20L2 170 µM | SNB-78 240 µM | MCF7 177 µM | OVCAR-3 105 µM | COLO 205 141 µM | SNB-19 339 µM | A549 222 µM | KM12 255 µM | SW-620 219 µM | DMS-114 134 µM | UACC-257 144 µM | A498 136 µM | IGROV-1 276 µM | CAKI-1 169 µM | CCRF-CEM 211 µM | SK-OV-3 218 µM | Malme-3M 152 µM | K562 180 µM | DLD-1 65.8 µM | HOP-18 148 µM | HT-29 166 µM | U-251 246 µM | NCI-H23 208 µM | OVCAR-8 292 µM | HL-60 103 µM | NCI-H226 160 µM | RXF 393 173 µM
220 µM: HCT-15

COc1ccc2c(c1)CCCC1C3=NCCC3(C)CSC21 (stereo unspecified)
inactive: DMS-273 36.6 µM | SF-539 51.6 µM | NCI-H522 86.9 µM | NCI-H460 74 µM | OVCAR-4 > 100 µM | SF-268 > 100 µM | SF-295 86.9 µM | SK-MEL-5 42.8 µM | HCT-116 37.5 µM | MOLT-4 32.6 µM | 786-0 70.3 µM | RPMI-8226 55.8 µM | SN12C > 100 µM | SNB-75 67.8 µM | M19-MEL 72.1 µM | LOX IMVI 30.2 µM | UACC-62 55 µM | XF498 > 100 µM | LXFL 529 58.5 µM | SK-MEL-28 36.2 µM | KM-20L2 22.8 µM | SNB-78 > 100 µM | OVCAR-3 97.3 µM | COLO 205 52.6 µM | SNB-19 > 100 µM | A549 > 100 µM | KM12 > 100 µM | SW-620 > 100 µM | DMS-114 37.8 µM | TK-10 70.8 µM | IGROV-1 > 100 µM | CCRF-CEM 70.3 µM | SK-OV-3 > 100 µM | K562 31 µM | HOP-18 80.4 µM | HT-29 32.4 µM | U-251 74.5 µM | NCI-H23 47.3 µM | OVCAR-8 59.7 µM | M14 37.4 µM | HL-60 17.1 µM | RXF 393 95.5 µM

CCOC(=O)C1=C(C)N(NC(=O)Nc2ccccc2)C(=O)C1=P(c1ccccc1)(c1ccccc1)c1ccccc1
inactive: DMS-273 40.6 µM | SF-539 28.2 µM | NCI-H522 19.4 µM | HOP-62 > 100 µM | NCI-H460 38.6 µM | SK-MEL-2 22.4 µM | OVCAR-4 35.2 µM | SF-268 > 100 µM | SF-295 48.4 µM | SK-MEL-5 33.8 µM | HCT-116 39.1 µM | MOLT-4 18.8 µM | 786-0 63 µM | RPMI-8226 24.2 µM | HOP-92 31 µM | SN12C 28.1 µM | OVCAR-5 > 100 µM | SNB-75 38 µM | SR 16.9 µM | M19-MEL 32.6 µM | UO-31 74.6 µM | LOX IMVI 41.2 µM | UACC-62 25.6 µM | EKVX 54.3 µM | ACHN 36.6 µM | HCC 2998 47.2 µM | XF498 31.8 µM | LXFL 529 35.2 µM | KM-20L2 40.6 µM | OVCAR-3 36.5 µM | COLO 205 25.3 µM | SNB-19 > 100 µM | A549 48.9 µM | KM12 > 10 µM | SW-620 31 µM | DMS-114 32.2 µM | UACC-257 45.7 µM | TK-10 56.5 µM | A498 29.5 µM | IGROV-1 29.6 µM | CAKI-1 44.7 µM | CCRF-CEM 26.1 µM | SK-OV-3 > 100 µM | Malme-3M 36.2 µM | K562 26.6 µM | DLD-1 33.6 µM | HOP-18 58.1 µM | HT-29 52.2 µM | U-251 33.9 µM | NCI-H23 41.6 µM | OVCAR-8 40 µM | M14 32.4 µM | HL-60 21.4 µM | NCI-H226 50 µM | RXF 393 28 µM
27.5 µM: HCT-15

CCCCCCCCCCCCCCCC(=O)N[C@H]1CCc2cc(OC)c(OC)c(OC)c2-c2ccc(SC)c(=O)cc21
active: SF-539 0.294 µM | NCI-H460 0.376 µM | SF-268 0.54 µM | SF-295 0.664 µM | SK-MEL-5 0.5 µM | HCT-116 0.338 µM | HOP-92 0.891 µM | SN12C 0.649 µM | SNB-75 0.238 µM | SR 0.258 µM | M19-MEL 0.458 µM | UACC-62 0.601 µM | EKVX 0.454 µM | HCC 2998 0.297 µM | XF498 0.769 µM | LXFL 529 0.486 µM | SK-MEL-28 0.782 µM | KM-20L2 0.186 µM | SNB-78 0.492 µM | OVCAR-3 0.225 µM | COLO 205 0.187 µM | SNB-19 0.973 µM | A549 0.486 µM | KM12 0.29 µM | SW-620 0.45 µM | UACC-257 0.527 µM | TK-10 0.492 µM | A498 0.692 µM | CCRF-CEM 0.356 µM | Malme-3M 0.762 µM | K562 0.325 µM | DLD-1 0.365 µM | HOP-18 0.933 µM | HT-29 0.253 µM | U-251 0.294 µM | NCI-H23 0.29 µM | OVCAR-8 0.557 µM | M14 0.279 µM | HL-60 0.279 µM | NCI-H226 0.196 µM
inactive: HOP-62 7.73 µM | SK-MEL-2 1.46 µM | OVCAR-4 3.24 µM | MOLT-4 1.23 µM | 786-0 2.36 µM | RPMI-8226 3.64 µM | OVCAR-5 15.2 µM | UO-31 3.52 µM | LOX IMVI 2.45 µM | ACHN 2.2 µM | IGROV-1 2.58 µM | CAKI-1 21.1 µM | SK-OV-3 1.67 µM | RXF 393 3.02 µM
1.15 µM: HCT-15
